The target of assay [1] is LRRK2, WT (GST-tagged truncated LRRK2) (Homo sapiens (Human), UniProt Q5S007). Nature of the assay: LRRK2 kinase assay (Lantha Screen), wild type. Format: biochemical. The conditions noted are these: 100 nM LRRKtide, 1 mM ATP, 2 μg/mL enzyme; geometric mean of 2-4 determinations unless otherwise indicated. On the procedure:
(§1) LRRK2 kinase activity was measured using Lantha Screen technology from Invitrogen. GST-tagged truncated LRRK2 from Invitrogen (Cat #PV4874) was incubated with a fluorescein-labeled peptide substrate based upon ezrin/radixin/moesin (ERM), also known as LRRKtide (Invitrogen cat #PR8976A), in the presence of a dose response of compound. Upon completion, the assay was stopped and detected with a terbium labeled anti-phospho-ERM antibody (Invitrogen, cat #PR8975A). The assay was carried out under the following protocol: The compound dose response was prepared by diluting compound to a top concentration of 0.3 mM in 100% DMSO and serial diluted by half-log in DMSO to give an 11 point curve, 100× final assay concentration. Using Echo acoustic dispensing, 60 nL of compound was transferred to a low volume Corning 384-well assay plate. 3 μL of a working solution of substrate (200 nM LRRKtide, 2 mM ATP) prepared in assay buffer (50 mM HEPES, pH 7.5, 3 mM MgCl2, with 2 mM DTT and 0.01% Brij35 added fresh) was added to the 60 nL compound assay plate. The kinase reaction was started with 3 μL of a working solution of LRRK2 enzyme at a concentration of 4 μg/mL. The final reaction concentrations were 100 nM LRRKtide, 1 mM ATP, 2 μg/mL LRRK2 enzyme and a compound dose response with a top dose of 3 μM. The reaction was allowed to progress at room temperature for 30 minutes and then stopped with the addition of 6 μL of detection buffer (20 mM Tris pH 7.6, 0.01% NP-40, 6 mM EDTA with 2 nM terbium labeled anti-phospho-ERM). After an incubation of 1 hour at room temperature, the plate was read on an Envision with an excitation wavelength of 340 nm and a reading emission at both 520 nm and 495 nm. The ratio of the 520 nm and 495 nm emission was used to analyze the data. Inhibition of mutant G2019S LRRK2 (Invitrogen cat #PV4881) was measured in the exact same method. All final concentrations of substrate ATP and enzyme were the same.

In the next assay the target is mutant G2019S LRRK2 (Homo sapiens (Human), UniProt Q5S007, G2019S). In words: LRRK2 kinase assay (Lantha Screen), mutant G2019S. The conditions noted are these: 100 nM LRRKtide, 1 mM ATP, 2 μg/mL enzyme; single determination unless otherwise indicated. Format: biochemical. On the procedure: as §1
mutant G2019S LRRK2, sequence (Q5S007 970-2527 G2019S): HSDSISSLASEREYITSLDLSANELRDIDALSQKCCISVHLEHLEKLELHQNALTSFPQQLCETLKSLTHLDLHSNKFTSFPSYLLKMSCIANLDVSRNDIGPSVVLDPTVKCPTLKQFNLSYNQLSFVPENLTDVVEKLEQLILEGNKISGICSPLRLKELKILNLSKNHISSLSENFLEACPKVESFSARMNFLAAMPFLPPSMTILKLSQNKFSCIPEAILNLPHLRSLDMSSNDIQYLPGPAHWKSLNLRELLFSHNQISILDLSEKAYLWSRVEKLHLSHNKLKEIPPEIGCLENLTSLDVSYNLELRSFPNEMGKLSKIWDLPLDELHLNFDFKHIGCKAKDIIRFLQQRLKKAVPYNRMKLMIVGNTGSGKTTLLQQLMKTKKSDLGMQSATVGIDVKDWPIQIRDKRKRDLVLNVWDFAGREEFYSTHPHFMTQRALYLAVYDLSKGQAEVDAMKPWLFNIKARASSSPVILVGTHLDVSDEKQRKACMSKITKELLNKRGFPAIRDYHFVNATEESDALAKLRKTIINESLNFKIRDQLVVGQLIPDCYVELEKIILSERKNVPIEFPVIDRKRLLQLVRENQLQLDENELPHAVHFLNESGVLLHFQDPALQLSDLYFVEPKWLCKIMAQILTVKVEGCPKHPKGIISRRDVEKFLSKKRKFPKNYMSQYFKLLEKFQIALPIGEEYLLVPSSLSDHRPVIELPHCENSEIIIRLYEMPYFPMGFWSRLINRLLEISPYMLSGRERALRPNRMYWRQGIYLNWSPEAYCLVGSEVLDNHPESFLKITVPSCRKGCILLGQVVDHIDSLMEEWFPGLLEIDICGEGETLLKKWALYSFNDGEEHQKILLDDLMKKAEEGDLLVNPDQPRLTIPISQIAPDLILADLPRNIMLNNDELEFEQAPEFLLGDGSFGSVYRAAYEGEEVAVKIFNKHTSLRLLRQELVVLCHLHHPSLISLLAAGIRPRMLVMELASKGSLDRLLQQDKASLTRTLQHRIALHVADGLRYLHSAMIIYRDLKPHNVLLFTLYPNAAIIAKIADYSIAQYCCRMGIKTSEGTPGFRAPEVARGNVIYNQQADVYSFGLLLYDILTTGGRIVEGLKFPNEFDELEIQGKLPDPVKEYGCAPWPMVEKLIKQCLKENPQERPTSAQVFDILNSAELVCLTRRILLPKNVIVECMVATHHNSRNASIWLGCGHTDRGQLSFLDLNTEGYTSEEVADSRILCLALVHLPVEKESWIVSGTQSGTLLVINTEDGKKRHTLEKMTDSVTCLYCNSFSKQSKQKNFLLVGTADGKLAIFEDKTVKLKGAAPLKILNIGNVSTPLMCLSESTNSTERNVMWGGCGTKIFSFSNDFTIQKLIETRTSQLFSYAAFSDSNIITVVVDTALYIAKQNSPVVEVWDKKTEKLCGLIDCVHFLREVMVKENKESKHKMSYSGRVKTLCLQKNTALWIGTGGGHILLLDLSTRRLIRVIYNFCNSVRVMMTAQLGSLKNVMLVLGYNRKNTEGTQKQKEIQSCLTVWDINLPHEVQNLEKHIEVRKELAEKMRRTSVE

LRRK2, WT (GST-tagged truncated LRRK2), sequence (Q5S007 970-2527): as the sequence (Q5S007 970-2527 G2019S) above, with S1050G counted along it

Turning to `C[C@@H]1C[C@H](n2c(C3CCC(F)(F)C3)nc3cnc4ccc(Cl)cc4c32)CCO1` (stereo partly drawn) [Example 11, 8-chloro-2-(3,3-difluorocyclopentyl)-1-[(2R,4R)-2-methyltetrahydro-2H-pyran-4-yl]-1H-imidazo[4,5-c]quinoline], the values for the IC50 (in assay [1]; on mutant G2019S LRRK2) were 20.3 nM and 13.8 nM, respectively.
In the case of `C[C@@H]1C[C@H](n2c(C3COC3)nc3cnc4ccc(Cl)cc4c32)CCO1` [Example 12, 8-chloro-1-[(2R,4R)-2-methyltetrahydro-2H-pyran-4-yl]-2-(oxetan-3-yl)-1H-imidazo[4,5-c]quinoline], the IC50 in assay [1] is 23 nM; against mutant G2019S LRRK2 it was 21.2 nM.
On the same counts, the results for `C[C@@H]1C[C@H](n2c(C3CCC(F)C3)nc3cnc4ccc(C#N)cc4c32)CCO1` (stereo partly drawn) [Example 14, 2-[(cis)-3-fluorocyclopentyl]-1-[(2R,4R)-2-methyltetrahydro-2H-pyran-4-yl]-1H-imidazo[4,5-c]quinoline-8-carbonitrile] are 15.2 nM and 10.8 nM.
With `C[C@@H]1C[C@H](n2c3c(cnc4ccc(C#N)cc43)nc2[C@H]2CC[C@@H](F)CC2)CCO1` [Example 15, 2-(cis-4-fluorocyclohexyl)-1-[(2R,4R)-2-methyltetrahydro-2H-pyran-4-yl]-1H-imidazo[4,5-c]quinoline-8-carbonitrile], the IC50 in assay [1] amounted to 6.75 nM; on mutant G2019S LRRK2 it was 8.3 nM.
On the same counts, the results for `C[C@@H]1C[C@H](n2c([C@H]3CCOC3)nc3cnc4ccc(C#N)cc4c32)CCO1` [Example 16, 1-[(2R,4R)-2-methyltetrahydro-2H-pyran-4-yl]-2-[(3R)-tetrahydrofuran-3-yl]-1H-imidazo[4,5-c]quinoline-8-carbonitrile] are 16.2 nM and 10.6 nM.
`C[C@@H]1C[C@H](n2c(C3CCC(F)(F)CC3)nc3cnc4ccc(C#N)cc4c32)CCO1` [Example 17, 2-(4,4-difluorocyclohexyl)-1-[(2R,4R)-2-methyltetrahydro-2H-pyran-4-yl]-1H-imidazo[4,5-c]quinoline-8-carbonitrile]: the 50% inhibitory concentration (IC50) in assay [1] stood at 15.6 nM; against mutant G2019S LRRK2, 11.2 nM.
Regarding `C[C@@H]1C[C@H](n2c3c(cnc4ccc(C#N)cc43)nc2[C@H]2C[C@@](C)(F)C2)CCO1` [Example 18, 2-(cis-3-fluoro-3-methylcyclobutyl)-1-[(2R,4R)-2-methyltetrahydro-2H-pyran-4-yl]-1H-imidazo[4,5-c]quinoline-8-carbonitrile], the results for the IC50 (in assay [1]; on mutant G2019S LRRK2) were 10.4 nM and 8.4 nM, respectively.
As to `C[C@@H]1C[C@H](n2c3c(cnc4ccc(C#N)cc43)nc2[C@H]2C[C@@H](F)C2)CCO1` [Example 19, 2-(cis-3-fluorocyclobutyl)-1-[(2R,4R)-2-methyltetrahydro-2H-pyran-4-yl]-1H-imidazo[4,5-c]quinoline-8-carbonitrile], the values for the IC50 (in assay [1]; against mutant G2019S LRRK2) were 16.1 nM and 12.4 nM, respectively.
On the same counts, the results for `C[C@@H]1C[C@H](n2c(C3CCCCC3(F)F)nc3cnc4ccc(C#N)cc4c32)CCO1` (stereo partly drawn) [Example 20, 2-(2,2-difluorocyclohexyl)-1-[(2R,4R)-2-methyltetrahydro-2H-pyran-4-yl]-1H-imidazo[4,5-c]quinoline-8-carbonitrile] are 17.7 nM and 10.4 nM.
For the compound `CN1CC[C@@H](n2c3c(cnc4ccc(C#N)cc43)nc2[C@H]2C[C@@](C)(F)C2)C1` [Example 22, 2-(cis-3-fluoro-3-methylcyclobutyl)-1-[(3R)-1-methylpyrrolidin-3-yl]-1H-imidazo[4,5-c]quinoline-8-carbonitrile], the half-maximal inhibitory concentration (IC50) was 14.2 nM in assay [1] and 36.5 nM on mutant G2019S LRRK2.
For `CN1CC[C@@H](n2c3c(cnc4ccc(C#N)cc43)nc2[C@H]2CC[C@@H](F)CC2)C1` [Example 23, 2-(cis-4-fluorocyclohexyl)-1-[(3R)-1-methylpyrrolidin-3-yl]-1H-imidazo[4,5-c]quinoline-8-carbonitrile], the values for the IC50 (in assay [1]; at mutant G2019S LRRK2) were 10.9 nM and 33 nM, respectively.
As for `CN1CC[C@@H](n2c3c(cnc4ccc(C#N)cc43)nc2[C@H]2C[C@@H](F)C2)C1` [Example 24, 2-(cis-3-fluorocyclobutyl)-1-[(3R)-1-methylpyrrolidin-3-yl]-1H-imidazo[4,5-c]quinoline-8-carbonitrile], the IC50 in assay [1] was determined as 5.27 nM; against mutant G2019S LRRK2 it was 22.4 nM.
Take `CN1CC[C@@H](n2c([C@H]3CCOC3)nc3cnc4ccc(C#N)cc4c32)C1` [Example 25, 1-[(3R)-1-methylpyrrolidin-3-yl]-2-[(3R)-tetrahydrofuran-3-yl]-1H-imidazo[4,5-c]quinoline-8-carbonitrile]: the IC50 in assay [1] was determined as 32.5 nM; against mutant G2019S LRRK2, 80 nM.
As for `C[C@@H]1C[C@H](n2c([C@H]3CCOC3)nc3cnc4ccc(C(F)(F)F)cc4c32)CCO1` [Example 26, 1-[(2R,4R)-2-methyltetrahydro-2H-pyran-4-yl]-2-[(3R)-tetrahydrofuran-3-yl]-8-(trifluoromethyl)-1H-imidazo[4,5-c]quinoline], the values for the IC50 (in assay [1]; against mutant G2019S LRRK2) were 9.79 nM and 5.71 nM, respectively.
On to `N#CC[C@@H]1C[C@H](n2c3c(cnc4ccc(Cl)cc43)nc2[C@H]2CC[C@@H](F)CC2)CCO1` [Example 28, {(2S,4R)-4-[8-chloro-2-(cis-4-fluorocyclohexyl)-1H-imidazo[4,5-c]quinolin-1-yl]tetrahydro-2H-pyran-2-yl}acetonitrile], for which the IC50 in assay [1] is 9.71 nM; against mutant G2019S LRRK2 it was 5.12 nM.
Turning to `N#CC[C@@H]1C[C@H](n2c3c(cnc4ccc(F)cc43)nc2[C@H]2CC[C@@H](F)CC2)CCO1` [Example 29, {(2S,4R)-4-[8-fluoro-2-(cis-4-fluorocyclohexyl)-1H-imidazo[4,5-c]quinolin-1-yl]tetrahydro-2H-pyran-2-yl}acetonitrile], the IC50 is 6.53 nM in assay [1] and 4.63 nM on mutant G2019S LRRK2.
As to `N#CCC1CC(n2c([C@H]3CCOC3)nc3cnc4ccc(Cl)cc4c32)CCO1` (stereo partly drawn) [Example 30, [cis-4-{8-chloro-2-[(3R)-tetrahydrofuran-3-yl]-1H-imidazo[4,5-c]quinolin-1-yl}tetrahydro-2H-pyran-2-yl]acetonitrile], the IC50 in assay [1] turned out to be 6.06 nM; at mutant G2019S LRRK2 it was 3.02 nM.
With `CN1CC[C@@H](n2c(C3CCC(F)C3)nc3cnc4ccc(C#N)cc4c32)C1` (stereo partly drawn) [Example 32, 2-[cis-3-fluorocyclopentyl]-1-[(3R)-1-methylpyrrolidin-3-yl]-1H-imidazo[4,5-c]quinoline-8-carbonitrile], the IC50 in assay [1] was 19.6 nM; against mutant G2019S LRRK2, 37.9 nM.
With `CN1CC[C@@H](n2c(C3CCC(F)C3)nc3cnc4ccc(C#N)cc4c32)C1` (stereo partly drawn) [Example 33, 2-[cis-3-fluorocyclopentyl]-1-[(3R)-1-methylpyrrolidin-3-yl]-1H-imidazo[4,5-c]quinoline-8-carbonitrile], the values for the 50% inhibitory concentration (IC50) (in assay [1]; at mutant G2019S LRRK2) were 6.56 nM and 4.3 nM, respectively.
With `CN1CC[C@@H](n2c(C3CCC(F)C3)nc3cnc4ccc(F)cc4c32)C1` (stereo partly drawn) [Example 34, 8-fluoro-2-[cis-3-fluorocyclopentyl]-1-[(3R)-1-methylpyrrolidin-3-yl]-1H-imidazo[4,5-c]quinoline], the IC50 in assay [1] is 59.6 nM; on mutant G2019S LRRK2, 77 nM.
Regarding `CC1(C)CC(n2c(C3CCC(F)C3)nc3cnc4ccc(C#N)cc4c32)CCO1` (stereo not drawn) [Example 39, 1-(2,2-dimethyltetrahydro-2H-pyran-4-yl)-2-(3-fluorocyclopentyl)-1H-imidazo[4,5-c]quinoline-8-carbonitrile], the IC50 was found to be 4.65 nM in assay [1] and 4.41 nM against mutant G2019S LRRK2.
As for `CC1(C)CC(n2c(C3CCC(F)C3)nc3cnc4ccc(C#N)cc4c32)CCO1` (stereo not drawn) [Example 40, 1-(2,2-dimethyltetrahydro-2H-pyran-4-yl)-2-(3-fluorocyclopentyl)-1H-imidazo[4,5-c]quinoline-8-carbonitrile], the values for the IC50 (in assay [1]; against mutant G2019S LRRK2) were 7.14 nM and 4.33 nM, respectively.
On to `CC1(C)CC(n2c(C3CCC(F)C3)nc3cnc4ccc(C#N)cc4c32)CCO1` (stereo not drawn) [Example 41, 1-(2,2-dimethyltetrahydro-2H-pyran-4-yl)-2-(3-fluorocyclopentyl)-1H-imidazo[4,5-c]quinoline-8-carbonitrile], for which the IC50 is 64.1 nM in assay [1] and 49.6 nM at mutant G2019S LRRK2.
With `CC1(C)CC(n2c(C3CCC(F)C3)nc3cnc4ccc(C#N)cc4c32)CCO1` (stereo not drawn) [Example 42, 1-(2,2-dimethyltetrahydro-2H-pyran-4-yl)-2-(3-fluorocyclopentyl)-1H-imidazo[4,5-c]quinoline-8-carbonitrile], the IC50 in assay [1] was 46.1 nM; at mutant G2019S LRRK2 it was 46 nM.

The values are drawn from US11161844B2, “Cyclic substituted imidazo[4,5-c]quinoline derivatives” (Pfizer Inc., priority 2017, dated 2021).
